# In patent US20080207759A1, “METHOD FOR PROTECTING MITOCHONDRIA” (SUCAMPO AG, priority 2007, published 2008):
# No end group written: not given here.
# Key:
# [1] = tested on: human pulmonary artery smooth muscle cells (PASMC); assay: ET-1 induced loss of mitochondrial membrane potential (JC-1 fluorescence); format: cell-based
# Method: Human pulmonary Artery Smooth Muscle cells (PASMC) were grown to confluence on 10×22 mm glass cover slips in Clonetics smooth muscle basal media supplemented with growth hormones and fetal bovine serum. The cells on glass cover slips were then placed in 3 ml Hank's Balanced Salt Solution (HBSS) supplemented with […] of the mitochondrial dye JC-1 and incubated at 37° C. for 30 minute. The cells on the cover slips were then washed with 3 ml HBSS and mounted in a cuvette in a spectrofluorimeter with 3 ml HBSS. The emission spectra with excitation at 490 nm were taken over the range of 520 nm to 620 nm (150 sec). […] (0.1% acetone) FCCP, which leads complete depolarization of the mitochondrial membrane potential, was added at the end of each experiment. The spectra were normalized by dividing them by the fluorescence at 570 nm. The value obtained after FCCP treatment was assigned a value of 0 mV and the individual FCCP ratio was subtracted from each ratio point. The control (JC-1) fluorescence ratio was then assigned a value of +224 mV and the membrane potential [DmH(mV)] for each experimental point were calculated accordingly.
# The cells were treated with 0.1% DMSO (vehicle for Compound 1), 1 nM Endothelin-1 (ET-1) or 1 nM ET-1 and 100 nM Compound 1 and scans were taken after 10, 30 and 60 minutes of the incubation. FCCP was added at the end and incubated for 60 minutes before taking scan. N=5 cover slips for all conditions.
# The cells were treated with 0.1% DMSO or 1 nm Endothelin-1 (ET-1) and scans were taken after 30 minutes of incubation. The medium was then removed by washing the cells with fresh HBSS and scans were taken after 30 minutes. FCCP was added to the dish at the end and incubated for 60 minutes before taking scan. N=5 cover slips. In other set of 5 cover slips 1 nM Endothelin-1 (ET-1) and 100 nM Compound 1 were added and scans were taken after 30 minutes of incubation. The medium was then removed by washing the cells with fresh HBSS and 100 nM Compound 1 was added on top of it. Scans were taken after 30 minutes. FCCP was added at the end and incubated for 60 minutes before taking scan. N=3 cover slips.
# The cells were treated with 1 nM Endothelin-1 (ET-1) and scans were taken after 30 minutes of incubation. The medium was then removed by washing the cells with fresh HBSS and HBSS supplemented with 100 nM Compound 1 was added to the cells. Scans were taken after 30 minutes. FCCP was added at the end and incubated for 60 minutes before taking scan. N=5 cover slips for all conditions.
# [2] = tested on: Human lung alveolar type II cells (A549); assay: Cytochrome c translocation into the cytosol induced by cigarette smoke extract (cytochrome c ELISA); format: cell-based; conditions: 100 nM Compound A with 1%, 2.5% or 5% CSE, 24 hrs
# Method: Smoke from 8 cigarettes were bubbled slowly through 100 ml of serum free culture medium and the resulting suspension was filtered through 0.20 μm filter. The solution was considered as 100% cigarette smoke extract (CSE). Human lung alveolar type II cells (A549) were seeded 1.5×10^5 cells per well in a 96 well plate and incubated for 48 hrs. The cells were then treated separately with either 100 nM Compound A (13,14-dihydro-15-keto-16,16-difluoro-18(S)-methyl-PGE1) or 1%, 2.5% and 5% CSE. In other sets, 100 nM Compound A was added along with 1%, 2.5% or 5% CSE. All incubations were done at 37° C. for 24 hrs. After 24 hr treatment, the cells were washed with 0-4° C. PBS three times. Measurement of cytochrome c that was translocated into the cytosol, a marker of cellular injury, was performed with a cytochrome c ELISA assay kit according to the instructions provided with the kit.
compound,measurement,setting,value
"CCCCC(F)(F)C(=O)CCC1CCC(=O)C1CCCCCCC(=O)O (stereo not shown) [Compound 1, 11-deoxy-13,14-dihydro-15-keto-16,16-difluoro-PGE1]",protection against ET-1 induced loss of membrane potential (in words),"[1]; 100 nM Compound 1 with 1 nM ET-1, 10, 30 and 60 min",protects against ET-1 induced loss of membrane potential at all times tested
same,mitochondrial membrane potential,"[1]; Example 1-2, 1 nM ET-1 along with 100 nM Compound 1, 30 min",137.1±4.7 mV
same,mitochondrial membrane potential,"[1]; Example 1-2, after removal of ET-1 with continued 100 nM Compound 1, further 30 min",115.3±2.3 mV
same,mitochondrial membrane potential (rescue),"[1]; Example 1-3, ET-1 30 min, then ET-1 removed and 100 nM Compound 1 added, 30 min",77.2±2.7 mV
same,mitochondrial membrane potential,"[1]; PASMC, 1 nM ET-1 and 100 nM Compound 1, 10 min, control taken as 224 mV",114.2±2.6 mV
same,mitochondrial membrane potential,"[1]; PASMC, 1 nM ET-1 and 100 nM Compound 1, 30 min, control taken as 224 mV",104.02±5.0 mV
same,mitochondrial membrane potential,"[1]; PASMC, 1 nM ET-1 and 100 nM Compound 1, 60 min, control taken as 224 mV",73.1±2.4 mV
"CC[C@H](C)CC(F)(F)C(=O)CC[C@H]1[C@H](O)CC(=O)[C@@H]1CCCCCCC(=O)O [Compound A, 13,14-dihydro-15-keto-16,16-difluoro-18(S)-methyl-PGE1]",cytochrome c translocation by CSE (in words),[2],protected against cytochrome c translocation by CSE
"Endothelin-1 (CSCSSLMDKECVYFCHLDIIW; ends and bridges not checked; cysteine pairing not given here; UniProt P05305 53-73, looked up) [ET-1, reference compound]",mitochondrial membrane potential,"[1]; Example 1-2, ET-1 30 min, then ET-1 removed, scan after 30 min",49.3±2.2 mV
same,mitochondrial membrane potential,"[1]; Examples 1-2 and 1-3, ET-1 alone, 30 min",50.3±5.6 mV
same,mitochondrial membrane potential,"[1]; PASMC, 1 nM ET-1 alone, 10 min, control taken as 224 mV",54.5±4.3 mV
same,mitochondrial membrane potential,"[1]; PASMC, 1 nM ET-1 alone, 30 min (Example 1-1), control taken as 224 mV",28.0±2.8 mV
same,mitochondrial membrane potential,"[1]; PASMC, 1 nM ET-1 alone, 60 min, control taken as 224 mV",13.1±1.0 mV
